“Also recorded” adds a separate entry of the source.
Columns and labels:
[1] = test system: MCF-7 Human Breast Carcinoma cell line; assay: In vitro growth inhibition (MTT), MCF-7 breast carcinoma; assay type: cell-based; conditions: 6 days
Description: P388 murine leukemic cell line was obtained from the DCT Tumor Repository (National Cancer Institute, Frederick Cancer Research and Development, Frederick Md. 21702). HT29 Human Colon Carcinoma cell line was obtained from the American Type Culture Collection (12301 Parklawn Drive, Rockville, Md. 20852). B16 Melanoma cell line was obtained from DuPont Merck Pharmaceutical Company (Glenolden, Pa. 19036). MCF-7 Human Breast Carcinoma cell line was a gift from Dr. K. Osborne (Department of Medicine, The University of Texas Health Science Center at San Antonio, San Antonio, Tex. 78284). All cell lines were incubated at 37° C. in a humidified atmosphere of 5% CO2 -95% air. Murine B16 melanoma cell line was grown in RPMI 1640 medium supplemented with 10% heat-inactivated fetal bovine serum, 2 mM L-glutamine, 50 units/ml penicillin, 50 μg/ml streptomycin, 25 μg/ml gentamycin, 0.75% sodium bicarbonate, 10 mM HEPES buffer (pH 7.4), and 0.06 mg/ml AntiPPLO. Murine P388 leukemic and the human HT-29 colon adenocarcinoma cell lines were maintained in RPMI 1640 medium supplemented with 10% heat-inactivated fetal bovine serum. MCF-7M human breast adenocarcinoma was maintained in IMEM medium supplemented with 5% non heat-inactivated fetal bovine serum and 1 nM insulin.
Exponentially growing cells (1-2×10^3 cells, unless specified otherwise) in 0.1 ml medium were seeded on day 0 in a 96-well microtiter plate. On day 1, 0.1 ml aliquots of medium containing graded concentrations of test compounds were added in duplicate to the cell plates. After incubation at 37° C. in a humidified incubator for 3 days (P388, B16) or 6 days (HT-29, MCF-7M), the plates were centrifuged briefly and 100 μl of the growth medium was removed. Cell cultures were incubated with 50 μl of 3-(4,5-dimethylthiazol-2-yl)-2,5-diphenyl-tetrazolium bromide [MTT, 1 mg/ml in Dulbecco's phosphate buffered saline (PBS)] for 4 hr at 37° C. The resulting purple formazan precipitate was solubilized with 200 μl of 0.04N HCl in isopropyl alcohol. Absorbance was monitored in a BioRad Model 3550 Microplate Reader at a test wavelength of 570 nm and a reference wavelength of 630 nm. The absorbance was transferred to a PC 486 computer. The IC50 values were determined by a computer program (EZ-ED50) that fit all of the data to the following four-parameterlogistic equation:
Y=((Am -Ao)/(1+(X/IC50)^n))+Ao
where Am is the absorbance of control cells, Ao is the absorbance of cells in the presence of highest agent concentration, Y is the observed absorbance, X is the agent concentration, IC50 is the concentration of agent that inhibits the cell growth by 50% of control cells (based on the absorbance) and n is the slope of the curve.

[2] = test system: EcoRI and Taq1 digested SV40 DNA; assay: DNA crosslinking, EcoRI/Taq I digested SV40 DNA, alkaline agarose gel; assay type: binding; conditions: 0.5 and 1 μM, 37° C., 17 hours
Experimental: Isolated SV40 DNA (Gibco BRL) was digested with EcoRI (3 units/μg DNA) (Promega #R6011) at 37° C. for two hours, and concentrated through a spin column (Microcon 50, Amicon, Inc.). The EcoRI digested SV40 DNA was then digested with Taq I (3 units/μg DNA) (Promega #6151) at 65° C. for an additional 2 hours. After digestion, DNA was extracted once with phenol/chloroform/isoamyl alcohol (25:24:1), and once with chloroform/isoamyl alcohol (24:1). The digested DNA was then labelled on the 5' end with ^32 P using the DuPont/NEN T4 polynucleotide kinase 5' end labelling system and […]. Labelled DNA was loaded onto a pre-equilibrated Sephadex 25 spin purification column (Quick-spin, Boehringer-Mannheim Biochemicals) and eluted into 400 μl TE (20 mM Tris HCl, 1 mM EDTA). Eluted DNA was ethanol precipitated overnight at -20° C. and spun in an Eppendorf microcentrifuge for 1 hour at 4° C., 14,000 rpm.
Precipitated DNA was suspended in TE (20 mM Tris HCl, pH 8, 1 mM EDTA) at approximately 0.1 μg/μl and incubated at 37° C. for 17 hours in a 50 μl volume with 0, 0.5, 1.0, 1.5 or 2 μM compound 21. Following drug treatment, DNA was again ethanol precipitated, spun down, dried briefly and suspended in 20 μl water. […]

Question: “8-(3'-nitro-1',8'-naphthalimide)-3,6-diazaoctylamine dichloroplatinum(II) [Compound 21]” was tested. Which IC50 [1] did it give?
Answer: 0.066 µM

Question: And the “formation of DNA cross links (in words)” value [2]?
Answer: formation of higher molecular weight DNA, around 4.6 and 5.8 Kb; also recorded: cross-linked DNA of 4.6-5.8 Kb
